Measurements as given in paper PMC8284453 (Antimicrobial Agents and Chemotherapy, 2021).
Converted amounts (≈) assume the structure as drawn. “And” between values parts separate entries of the source, which are not always exact repeats. Equal values may be shown once. Read-outs that look alike come from different tables or passages of the source.

How the values were obtained:
[1] = test system: Enterobacterales expressing class A carbapenemases (KPC); assay: organism not typed; type: cell-based, K. pneumoniae, E. coli, E. cloacae, Klebsiella oxytoca; conditions: K. pneumoniae UMM (KPC-2, SHV-5, TEM-1)
[2] = test system: K. pneumoniae ATCC BAA-1705 (KPC-2); assay: 24-h time-kill assay; type: cell-based; conditions: Klebsiella pneumoniae, ATCCBAA1705; lowest concentration with ≥3-log10 CFU/ml reduction at 24 h; read-out: MBC
Protocol: (§1) In vitro antibacterial time-kill assay. […] Time-kill assays were performed in 14 ml glass tubes or deep-well storage plates with a bacterial inoculum in CAMHB of 5 × 10^5 CFU/ml. The tubes/plates were incubated at 37°C with shaking at 200 rpm, and aliquots were drawn at six time points (0, 2, 4, 6, 8, and 24 h) to conduct 0.5 log10 dilutions in CAMHB in 96-well plates that were incubated overnight at 37°C and used to ascertain viable bacterial counts. The lowest quantifiable amount by this method is 2 log10 CFU/ml.

[3] = test system: E. cloacae ECL01 (TEM-72, ACT-1, P99AmpC); assay: 24-h time-kill assay; type: cell-based; conditions: Enterobacter cloacae; lowest concentration with ≥3-log10 CFU/ml reduction at 24 h; read-out: MBC
Protocol: as §1

[4] = test system: K. pneumoniae 752286 (OXA-48); assay: 24-h time-kill assay; type: cell-based; conditions: Klebsiella pneumoniae, 24 h
Protocol: as §1

E. coli ESBL4 (CTX-M-15) = assay: 24-h time-kill assay; type: cell-based
Protocol: as §1

[5] = test system: Enterobacterales expressing class C cephalosporinases
[6] = test system: K. pneumoniae 752286 (OXA-48); assay: Broth microdilution MIC; type: cell-based; conditions: Klebsiella pneumoniae
[7] = test system: isogenic strains of E. coli expressing Ambler class A, B, C, and D enzymes; assay: microbe, parasite or virus in culture; type: cell-based, Escherichia coli
[8] = test system: Enterobacterales expressing class A ESBLs; assay: organism not typed; type: cell-based, E. coli, K. pneumoniae
[9] = test system: K. pneumoniae ATCC BAA-1705 (KPC-2); assay: Broth microdilution MIC; type: cell-based; conditions: Klebsiella pneumoniae, ATCCBAA1705
[10] = test system: Enterobacterales expressing class C cephalosporinases; assay: organism not typed

Nc1nc(/C(=C/CC(=O)O)C(=O)N[C@@H]2C(=O)N3C(C(=O)O)=CCS[C@H]23)cs1 [CTB, ceftibuten] showed an MIC [1] of 1 µg/mL (≈ 2.44 µM), an MBC [2] of 16 µg/mL (≈ 39 µM) and an MBC [3] of over 32 µg/mL. The MBC [4] was at least 128 µg/mL, the MBC (E. coli ESBL4 (CTX-M-15); Escherichia coli, lowest concentration with ≥3-log10 CFU/ml reduction at 24 h, read-out: MBC) was over 32 µg/mL and the “outcome of 24-h time-kill assay” value (E. coli ESBL4 (CTX-M-15); Fig. 3a, CTB 2 μg/ml with BLI at 4 μg/ml, CTB alone 8 μg/ml, amoxicillin 8/clavulanic acid 4 μg/ml, penems 2 μg/ml) was “initial killing, but the strains grew to control levels by 24 h”. For the same compound, the MIC90 ([5]; 25 isolates, BLI fixed at 4 μg/ml, AMC 2:1) was at least 64 µg/mL, the MIC ([5]; C. freundii 134390 (AmpC, TEM-1)) was 4 µg/mL (≈ 9.75 µM) and the MIC ([5]; E. aerogenes 110099 (AmpC, SHV-12)) was 32 µg/mL (≈ 78 µM). For the same compound, the MIC ([5]; E. aerogenes 111707 (AmpC, TEM-1)) was 2 µg/mL (≈ 4.87 µM), the MIC ([5]; E. aerogenes 111902 (AmpC, TEM-1)) was at least 64 µg/mL and the MIC ([5]; E. coli 128 (AmpC, SHV-12, TEM-1, Toho-2)) was 2 µg/mL (≈ 4.87 µM). For the same compound, the MIC ([5]; E. coli 3102 (AmpC, CTX-M-15, TEM-1)) was 32 µg/mL (≈ 78 µM), the MIC ([5]; E. coli CH1 (AmpC, CTX-M-15, SHV-1, SHV-5, TEM-1)) was at least 64 µg/mL and the MIC ([5]; E. coli EC469 (AmpC, SHV-12, TEM-1)) was 2 µg/mL (≈ 4.87 µM). It also gave an MIC ([5]; E. coli J53 (AmpC, SHV-5, TEM-1)) of 8 µg/mL (≈ 19.5 µM), an MIC ([5]; E. coli SI-P026TC (CMY-2, TEM-1)) of at least 64 µg/mL and an MIC ([5]; E. coli SI-PO26 (AmpC, CMY-2, TEM-1)) of at least 64 µg/mL. For the same compound, the MIC ([5]; K. pneumoniae 129032 (MOX-2, SHV-12, TEM-1)) was 16 µg/mL (≈ 39 µM), the MIC ([5]; K. pneumoniae 178279 (AmpC, SHV-12, TEM-1)) was 8 µg/mL (≈ 19.5 µM) and the MIC ([5]; K. pneumoniae 212027 (AmpC, FOX-5, TEM-1)) was 16 µg/mL (≈ 39 µM). It also gave an MIC ([5]; K. pneumoniae 217917 (CMY-2, TEM-1)) of 8 µg/mL (≈ 19.5 µM), an MIC ([5]; K. pneumoniae 301313 (AmpC, SHV-12, TEM-1)) of at least 64 µg/mL and an MIC ([5]; K. pneumoniae 398845 (CMY-2, SHV-12, TEM-1)) of 16 µg/mL (≈ 39 µM). The MIC ([5]; K. pneumoniae SI-F100 (CMY-2, SHV-5, TEM-1)) was 2 µg/mL (≈ 4.87 µM), the MIC ([5]; P. mirabilis SI-F014 (AmpC, TEM-72)) was at least 64 µg/mL and the MIC ([5]; S. marcescens 132253 (AmpC, CTX-M-3, OXA-1, SHV-12, TEM-1)) was at least 64 µg/mL. It also gave an MIC ([5]; S. marcescens 134434 (AmpC, SHV-12, TEM-1)) of 32 µg/mL (≈ 78 µM), an MIC ([5]; S. marcescens 142397 (AmpC, SHV-7, TEM-1)) of at least 64 µg/mL and an MIC ([5]; S. marcescens 156212 (AmpC, SHV-12, TEM-1)) of 8 µg/mL (≈ 19.5 µM). It also gave an MIC ([5]; S. marcescens 192478 (AmpC, SHV-12, TEM-1)) of 8 µg/mL (≈ 19.5 µM), an MIC ([5]; S. marcescens 218068 (AmpC, SHV-7, TEM-1)) of 32 µg/mL (≈ 78 µM) and an MIC [6] of 128 µg/mL (≈ 312 µM). For the same compound, the “Fold increase in MIC compared to vector control” value (shortened to “Fold increase in MIC”) [7] was 16 and 32, the “Fold increase in MIC” value ([7]; E. coli expressing ACT-17 (class C), inhibitor fixed at 4 μg/ml) was 1,024 and the “Fold increase in MIC” value ([7]; E. coli expressing CMY-2 (class C), inhibitor fixed at 4 μg/ml) was 1,024. The “Fold increase in MIC” value ([7]; E. coli expressing CMY-42 (class C), inhibitor fixed at 4 μg/ml) was ≥1,024, the “Fold increase in MIC” value ([7]; E. coli expressing CTX-M-15 (class A), inhibitor fixed at 4 μg/ml) was 64 and the “Fold increase in MIC” value ([7]; E. coli expressing GES-5 (class A), inhibitor fixed at 4 μg/ml) was 8. For the same compound, the “Fold increase in MIC” value ([7]; E. coli expressing NDM-1 (class B), inhibitor fixed at 4 μg/ml) was ≥1,024, the “Fold increase in MIC” value ([7]; E. coli expressing OXA-23 (class D), inhibitor fixed at 4 μg/ml) was 2 and the “Fold increase in MIC” value ([7]; E. coli expressing OXA-48 (class D), inhibitor fixed at 4 μg/ml) was 4. For the same compound, the “Fold increase in MIC” value ([7]; E. coli expressing OXA-163 (class D), inhibitor fixed at 4 μg/ml) was 32, the “Fold increase in MIC” value ([7]; E. coli expressing OXA-181 (class D), inhibitor fixed at 4 μg/ml) was 2 and the “Fold increase in MIC” value ([7]; E. coli expressing P99/AmpC (class C), inhibitor fixed at 4 μg/ml) was ≥1,024. For the same compound, the “Fold increase in MIC” value ([7]; E. coli expressing PER-1 (class A), inhibitor fixed at 4 μg/ml) was 1,024, the “Fold increase in MIC” value ([7]; E. coli expressing SHV-5 (class A), inhibitor fixed at 4 μg/ml) was 128 and the “Fold increase in MIC” value ([7]; E. coli expressing SHV-12 (class A), inhibitor fixed at 4 μg/ml) was 256. For the same compound, the “Fold increase in MIC” value ([7]; E. coli expressing TEM-10 (class A), inhibitor fixed at 4 μg/ml, modal MIC, 4 replicates) was 4, the “Fold increase in MIC” value ([7]; E. coli expressing VEB-9 (class A), inhibitor fixed at 4 μg/ml) was ≥1,024 and the MIC ([7]; Escherichia coli, read-out: Vector control MIC) was 1 µg/mL (≈ 2.44 µM). The MIC50 [8] was 8 µg/mL (≈ 19.5 µM), the MIC90 [8] was at least 64 µg/mL and the MIC [9] was 16 µg/mL (≈ 39 µM). The MIC50 [10] was 16 µg/mL (≈ 39 µM) and the MIC90 [10] was at least 64 µg/mL.
